Blank lines part the entries; values can stand above or below the compound they belong to.
How the values were obtained:
BCL2 WT = BCL2 WT (Homo sapiens (Human), UniProt P10415); assay: TR-FRET competitive binding assay, BCL2 WT; conditions: Ki determined from IC50, read-out: TR_FRET EKI_Bcl2 WT
Outline: (§1)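 Ki derived from IC50 (11-point dilution, 520/495 nm emission ratio) for displacing a fluorescein-labelled PUMA peptide (2 or 20 nM). Target was 0.5 nM E. coli-expressed Halo-tagged BCL2 (1-207) or BCLXL (2-196), terbium-labelled on Halo. Incubation 2 h at 23°C in pH 7.5 Hepes with 150 mM NaCl and 5% DMSO.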

BCL2 G101V [1] = target: BCL2 G101V (Homo sapiens, UniProt P10415, G101V); assay: TR-FRET competitive binding assay, BCL2 G101V; conditions: BCL2 G101V; Ki determined from IC50; read-out: TR_FRET EKI_Bcl2 G101V
Outline: as §1

BCL2 G101V [2] = assay: TR-FRET competitive binding assay, BCL2 G101V; parameters: species or system human; conditions: ratio Ki BCL2 G101V / Ki BCL2 WT
Outline: as §1

BCL2 F104I = BCL2 F104I (Homo sapiens, UniProt P10415, F104I); assay: TR-FRET competitive binding assay, BCL2 F104I; conditions: Ki determined from IC50, read-out: TR_FRET EKI_Bcl2 F104I
Description: The relative binding potency of each compound was determined in a competitive binding assay using time resolved-fluorescence resonance energy transfer (TR-FRET). The method utilised a fluorescein labelled peptide derived from PUMA (5Flu-Ahx-[…]-NH2 wherein Ahx means 6-hexanoic acid monomer and the amino acid sequence is referred to as SEQ ID:01) which binds to a terbium labelled BCL2 or BCLXL protein. The degree of binding or corresponding compound inhibition can be quantified by the TR-FRET signal between the terbium donor and fluorescein acceptor.
The human BCL2_wild-type (also named BCL2_wt), BCL2_G101V mutant and BCLXL_wild-type were E. coli expressed as a N-terminal Halo-fusion proteins and singly labelled with Terbium on the Halo protein to afford the following amino acid sequences:
wherein the BCL2(1-207) sequence corresponds to UniProtKB® primary accession number P10415 and the BCLXL(2-196) sequence corresponds to UniProtKB® primary accession number Q07817-1.
The assay was performed in a 40 μL volume in white 384-standard well plates (Corning #3574). An 11-point serial dilution of each compound was prepared in DMSO and transferred directly to plate followed by addition of fluorescein labelled peptide and lastly protein. Final assay conditions were 0.5 nM BCL2_wt, BCL2_G101V, BCL2_D103Y, BCL2_F104I, BCL2_D111A or BCLXL_wt, 2 or 20 nM fluorescein labelled peptide, 50 mM Hepes pH 7.5, 150 mM NaCl, 0.5 mM TCEP (Tris(2-carboxyethyl)phosphine), 0.05% Tween 20, 5% DMSO. The mixture was incubated for 2 hours at 23° C.
TR-FRET measurements were performed on a Biotek Synergy Neo plate reader. TR-FRET was measured by excitation of the Terbium-donor at 340 nm and subsequent (delay time 100 μs) measurement of terbium and fluorescein emission at 495 nm and 520 nm, respectively, over a collection time of 300 μs. The TR-FRET signal was calculated as the emission-ratio at 520 nm over 495 nm.
The TR-FRET ratio readout for test compounds was normalized against 0% inhibition controls wells and 100% inhibition control wells. Test compound potency (IC50) was estimated by nonlinear regression using the sigmoidal dose-response (variable slope) using Xlfit 4 (IDBS, Guildford, Surrey, UK, model 205). Were the IC50 could not be determined the % inhibition at the highest tested concentration is given.
y=(A+((B−A)/(1+((C/x)^D))))
where y is the normalized TR-TRET ratio measurement for a given concentration of test compound, x is the concentration of test compound, A is the estimated efficacy (% inhibition) at infinite compound dilution, and B is the maximal efficacy (% inhibition). C is the IC50 value and D is the Hill slope coefficient.
The K1 values were determined from the IC50 values according to Cer et al, Nucleic Acids Res, 2009, July 1; 37 (WebServer issue): W441-W445.

KMS-12-PE Bcl-2 WT = assay: In vitro cytotoxicity CellTiter-Glo 48 h, KMS-12-PE Bcl-2 WT; type: cell-based; conditions: Homo sapiens, KMS-12-PE, C50 = concentration needed to reach 50% of the cellular viability
Outline: (§2)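 Transduce KMS-12-PE with Bcl-2 WT or G101V lentivirus, then FACS-sort RFP-positive cells. Add compounds in an 11-point dilution series and incubate 48 h at 37 °C. Measure ATP-based luminescence with CellTiter-Glo and derive C50 (50% viability).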

KMS-12-PE Bcl-2 G101V = assay: In vitro cytotoxicity CellTiter-Glo 48 h, KMS-12-PE Bcl-2 G101V; type: cell-based; conditions: for Ratio (G101V/WT): C50 KMS-12-PE Bcl-2 G101V over C50 KMS-12-PE Bcl-2 WT; for IC50: Homo sapiens, KMS-12-PE, 48 h, CellTiter-Glo, C50 = concentration needed to reach 50% of the cellular viability
Outline: as §2

BCL2 D103Y = BCL2 D103Y (Homo sapiens, UniProt P10415, D103Y); assay: TR-FRET competitive binding assay, BCL2 D103Y; conditions: Ki determined from IC50, read-out: TR_FRET EKI_Bcl2 D103Y
Outline: as §1

BCLXL WT = BCLXL WT (Homo sapiens (Human), UniProt Q07817); assay: TR-FRET competitive binding assay, BCLXL WT; conditions: for Ki: BCLXL WT, Ki determined from IC50, read-out: TR_FRET EKI BclxL; for TR_FRET EKI BCLxL/WT selectivty ratio: ratio Ki BCLxL / Ki BCL2 WT
Outline: as §1

BCLXL WT, sequence (Q07817 other isoform, or with tags, fused parts or gaps): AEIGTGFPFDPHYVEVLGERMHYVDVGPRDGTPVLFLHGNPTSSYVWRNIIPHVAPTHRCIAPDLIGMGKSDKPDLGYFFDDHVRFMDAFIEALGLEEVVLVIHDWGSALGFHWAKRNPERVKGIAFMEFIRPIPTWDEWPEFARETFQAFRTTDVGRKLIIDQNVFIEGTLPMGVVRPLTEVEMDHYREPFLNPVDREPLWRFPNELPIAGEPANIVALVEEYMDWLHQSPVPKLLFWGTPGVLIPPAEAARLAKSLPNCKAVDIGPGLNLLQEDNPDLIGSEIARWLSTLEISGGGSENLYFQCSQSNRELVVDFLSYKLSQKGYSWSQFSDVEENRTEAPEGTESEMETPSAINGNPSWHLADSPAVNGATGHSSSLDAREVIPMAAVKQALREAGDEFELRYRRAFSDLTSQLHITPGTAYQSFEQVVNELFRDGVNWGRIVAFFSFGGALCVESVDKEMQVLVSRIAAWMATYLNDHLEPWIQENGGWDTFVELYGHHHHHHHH

Ki (BCL2 WT): 0.34 nM
Ki (BCL2 G101V [1]): 2.2 nM
TR_FRET EKI G101V/WT selectivty ratio (BCL2 G101V [2]): 6.5
Ki (BCL2 F104I): 6.12 nM
Structure (SMILES): Cc1cccc(CC(=O)N2CCc3cc(-c4cc(C(=O)N(c5ccc(O)cc5)c5cc(C#N)n(C)c5C)c(C)n4C)c(C(=O)N4Cc5ccccc5C[C@H]4C)cc3C2)c1 [Example 1, N-(5-cyano-1,2-dimethyl-1H-pyrrol-3-yl)-N-(4-hydroxyphenyl)-1,2-dimethyl-5-{7-[(3R)-3-methyl-1,2,3,4-tetrahydroisoquinoline-2-carbonyl]-2-[2-(3-methylphenyl)acetyl]-1,2,3,4-tetrahydroisoquinolin-6-yl}-1H-pyrrole-3-carboxamide]
IC50 (KMS-12-PE Bcl-2 WT): 0.0087 µM
Ratio (G101V/WT) (KMS-12-PE Bcl-2 G101V): 8.92
IC50 (KMS-12-PE Bcl-2 G101V): 0.0776 µM

Ki (BCL2 WT): 0.14 nM
Ki (BCL2 G101V [1]): 0.8 nM
TR_FRET EKI G101V/WT selectivty ratio (BCL2 G101V [2]): 5.7
Ki (BCL2 D103Y): 0.88 nM
Ki (BCL2 F104I): 2.6 nM
Structure (SMILES): COc1cccc(CC(=O)N2CCc3cc(-c4cc(C(=O)N(c5ccc(O)cc5)c5cc(C#N)n(C)c5C)c(C)n4C)c(C(=O)N4Cc5ccccc5C[C@H]4C)cc3C2)c1 [Example 7, N-(5-cyano-1,2-dimethyl-1H-pyrrol-3-yl)-N-(4-hydroxyphenyl)-5-{2-[2-(3-methoxyphenyl)acetyl]-7-[(3R)-3-methyl-1,2,3,4-tetrahydroisoquinoline-2-carbonyl]-1,2,3,4-tetrahydroisoquinolin-6-yl}-1,2-dimethyl-1H-pyrrole-3-carboxamide]
IC50 (KMS-12-PE Bcl-2 WT): 0.0058 µM
Ratio (G101V/WT) (KMS-12-PE Bcl-2 G101V): 12.2
IC50 (KMS-12-PE Bcl-2 G101V): 0.0713 µM

Ki (BCL2 WT): 0.48 nM
Ki (BCL2 G101V [1]): 2.8 nM
TR_FRET EKI G101V/WT selectivty ratio (BCL2 G101V [2]): 5.8
Ki (BCL2 D103Y): 1.27 nM
Ki (BCL2 F104I): 17.9 nM
Structure (SMILES): Cc1cc(O)ccc1N(C(=O)c1cc(-c2cc3c(cc2C(=O)N2Cc4ccccc4C[C@H]2C)CN(C(=O)Cc2ccccc2)CC3)n(C)c1C)c1cc(C#N)n(C)c1C [Example 9, N-(5-cyano-1,2-dimethyl-1H-pyrrol-3-yl)-N-(4-hydroxy-2-methylphenyl)-1,2-dimethyl-5-{7-[(3R)-3-methyl-1,2,3,4-tetrahydroisoquinoline-2-carbonyl]-2-(2-phenylacetyl)-1,2,3,4-tetrahydroisoquinolin-6-yl}-1H-pyrrole-3-carboxamide]
IC50 (KMS-12-PE Bcl-2 WT): 0.0254 µM
Ratio (G101V/WT) (KMS-12-PE Bcl-2 G101V): 7.01
IC50 (KMS-12-PE Bcl-2 G101V): 0.178 µM

More lines, now with the values behind:

Structure (SMILES): Cc1c(N(C(=O)c2cc(-c3cc4c(cc3C(=O)N3Cc5ccccc5C[C@H]3C)CN(C(=O)COc3ccccc3)CC4)n(C)c2C)c2ccc(O)cc2)cc(C#N)n1C [Example 2, N-(5-cyano-1,2-dimethyl-1H-pyrrol-3-yl)-N-(4-hydroxyphenyl)-1,2-dimethyl-5-{7-[(3R)-3-methyl-1,2,3,4-tetrahydroisoquinoline-2-carbonyl]-2-(2-phenoxyacetyl)-1,2,3,4-tetrahydroisoquinolin-6-yl}-1H-pyrrole-3-carboxamide]
Ki (BCL2 WT): 0.17 nM
Ki (BCL2 G101V [1]): 0.5 nM
TR_FRET EKI G101V/WT selectivty ratio (BCL2 G101V [2]): 3.0
Ki (BCL2 D103Y): 1.09 nM
Ki (BCL2 F104I): 3.08 nM
Ki (BCLXL WT): 2.1 nM
TR_FRET EKI BCLxL/WT selectivty ratio (BCLXL WT): 12.7
IC50 (KMS-12-PE Bcl-2 WT): 0.004 µM
Ratio (G101V/WT) (KMS-12-PE Bcl-2 G101V): 5.04
IC50 (KMS-12-PE Bcl-2 G101V): 0.02 µM

Structure (SMILES): Cc1c(N(C(=O)c2cc(-c3cc4c(cc3C(=O)N3Cc5ccccc5C[C@H]3C)CN(C(=O)Cc3cccc(N5CCN(C)CC5)c3)CC4)n(C)c2C)c2ccccc2)cc(C#N)n1C [Example 3, N-(5-cyano-1,2-dimethylpyrrol-3-yl)-1,2-dimethyl-5-(7-{[(3R)-3-methyl-3,4-dihydro-1H-isoquinolin-2-yl]carbonyl}-2-{2-[3-(4-methylpiperazin-1-yl)phenyl]acetyl}-3,4-dihydro-1H-isoquinolin-6-yl)-N-phenylpyrrole-3-carboxamide]
Ki (BCL2 WT): 0.03 nM
Ki (BCL2 G101V [1]): 0.4 nM
TR_FRET EKI G101V/WT selectivty ratio (BCL2 G101V [2]): 11.7
Ki (BCL2 D103Y): 0.12 nM
Ki (BCL2 F104I): 1.65 nM
Ki (BCLXL WT): 1.3 nM
TR_FRET EKI BCLxL/WT selectivty ratio (BCLXL WT): 43.3
IC50 (KMS-12-PE Bcl-2 WT): 0.0054 µM
Ratio (G101V/WT) (KMS-12-PE Bcl-2 G101V): 9.44
IC50 (KMS-12-PE Bcl-2 G101V): 0.051 µM

Structure (SMILES): Cc1c(C(=O)N(c2ccccc2)c2cc(C#N)n(CCO)c2C)cc(-c2cc3c(cc2C(=O)N2Cc4ccccc4C[C@H]2C)CN(C(=O)Cc2ccccc2)CC3)n1C [Example 4, N-[5-cyano-1-(2-hydroxyethyl)-2-methyl-pyrrol-3-yl]-1,2-dimethyl-5-[7-[(3R)-3-methyl-3,4-dihydro-1H-isoquinoline-2-carbonyl]-2-(2-phenylacetyl)-3,4-dihydro-1H-isoquinolin-6-yl]-N-phenyl-pyrrole-3-carboxamide]
Ki (BCL2 WT): 0.11 nM
Ki (BCL2 G101V [1]): 3.2 nM
TR_FRET EKI G101V/WT selectivty ratio (BCL2 G101V [2]): 30.2
Ki (BCL2 F104I): 11.9 nM
IC50 (KMS-12-PE Bcl-2 WT): 0.0048 µM
Ratio (G101V/WT) (KMS-12-PE Bcl-2 G101V): 25.9
IC50 (KMS-12-PE Bcl-2 G101V): 0.124 µM

Structure (SMILES): Cc1c(N(C(=O)c2cc(-c3cc4c(cc3C(=O)N3Cc5ccccc5C[C@H]3C)CN(C(=O)Cc3ccc(F)cc3)CC4)n(C)c2C)c2ccc(O)cc2)cc(C#N)n1C [Example 5, N-(5-cyano-1,2-dimethyl-1H-pyrrol-3-yl)-5-{2-[2-(4-fluorophenyl)acetyl]-7-[(3R)-3-methyl-1,2,3,4-tetrahydroisoquinoline-2-carbonyl]-1,2,3,4-tetrahydroisoquinolin-6-yl}-N-(4-hydroxyphenyl)-1,2-dimethyl-1H-pyrrole-3-carboxamide]
Ki (BCL2 WT): 0.18 nM
Ki (BCL2 G101V [1]): 1.3 nM
TR_FRET EKI G101V/WT selectivty ratio (BCL2 G101V [2]): 7.3
Ki (BCL2 F104I): 4.45 nM
IC50 (KMS-12-PE Bcl-2 WT): 0.0057 µM
Ratio (G101V/WT) (KMS-12-PE Bcl-2 G101V): 4.98
IC50 (KMS-12-PE Bcl-2 G101V): 0.0285 µM

Structure (SMILES): Cc1c(N(C(=O)c2cc(-c3cc4c(cc3C(=O)N3Cc5ccccc5C[C@H]3C)CN(C(=O)Cc3cccc(N5CCN6CCOC[C@@H]6C5)c3)CC4)n(C)c2C)c2ccccc2)cc(C#N)n1C [Example 8, 5-[2-(2-{3-[(9aS)-hexahydro-1H-piperazino[2,1-c]morpholin-8-yl]phenyl}acetyl)-7-{[(3R)-3-methyl-3,4-dihydro-1H-isoquinolin-2-yl]carbonyl}-3,4-dihydro-1H-isoquinolin-6-yl]-N-(5-cyano-1,2-dimethylpyrrol-3-yl)-1,2-dimethyl-N-phenylpyrrole-3-carboxamide]
Ki (BCL2 WT): 0.06 nM
Ki (BCL2 G101V [1]): 1.2 nM
TR_FRET EKI G101V/WT selectivty ratio (BCL2 G101V [2]): 20.3
Ki (BCL2 F104I): 3.46 nM
Ki (BCLXL WT): 2.8 nM
TR_FRET EKI BCLxL/WT selectivty ratio (BCLXL WT): 47.46
IC50 (KMS-12-PE Bcl-2 WT): 0.0026 µM
Ratio (G101V/WT) (KMS-12-PE Bcl-2 G101V): 27.6
IC50 (KMS-12-PE Bcl-2 G101V): 0.0727 µM

From patent US20250179047A1, “5-[7-(3,4-DIHYDRO-1H-ISOQUINOLINE-2-CARBONYL)-1,2,3,4 TETRAHYDROISOQUINOLIN-6-YL]-1H-PYRROLE-3-CARBOXAMIDE DERIVATIVES, PHARMACEUTICAL COMPOSITIONS CONTAINING THEM AND THEIR USES AS PRO-APOPTOTIC AGENTS” (LES LABORATOIRES SERVIER, priority 2022, published 2025)
